Measured values from patent US10487345B2, “Methods for making and using polynucleotide sequences in the synthesis of alkaloid compounds” (priority 2014, dated 2019).

What was measured:
[1] = target: GFLOMT1 (Glaucium flavum, UniProt A0A0H4IRD0); assay: Standard OMT assay, substrate specificity of recombinant GFLOMT1; assay type: biochemical; settings: for conversion of substrate by GFLOMT1: standard OMT assay, in the presence of SAM; for Substrate specificity, enzyme GFLOMT1: substrate conversion in the standard OMT assay in the presence of SAM (percent)
Source text: (§1) Full-length cDNAs for the seven GFLOMT candidates (see: Example 6) were cloned into the pRSETA expression vector with an N-terminal His_tag translational fusion and expressed in E. coli. Recombinant GFLOMTs were purified from total protein extracts using a cobalt-affinity resin.

[2] = target: T1, GFLOMT2 (Glaucium flavum, UniProt A0A0H4ILZ3); assay: Standard OMT assay, substrate specificity of recombinant GFLOMT2; assay type: biochemical; settings: for conversion of substrate by GFLOMT2: standard OMT assay; for Substrate specificity, enzyme GFLOMT2: substrate conversion in the standard OMT assay (percent)
T1 sequence (A0A0H4ILZ3 1-348): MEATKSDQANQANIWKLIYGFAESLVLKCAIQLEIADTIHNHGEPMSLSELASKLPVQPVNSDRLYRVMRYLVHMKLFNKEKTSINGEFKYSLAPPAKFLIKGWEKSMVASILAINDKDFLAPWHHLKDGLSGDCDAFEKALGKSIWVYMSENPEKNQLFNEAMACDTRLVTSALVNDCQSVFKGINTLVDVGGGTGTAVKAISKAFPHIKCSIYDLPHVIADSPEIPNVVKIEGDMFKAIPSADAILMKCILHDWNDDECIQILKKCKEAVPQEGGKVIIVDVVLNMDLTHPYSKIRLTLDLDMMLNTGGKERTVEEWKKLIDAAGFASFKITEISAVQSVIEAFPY
Source text: as §1

[3] = target: GFLOMT6 (Glaucium flavum, UniProt A0A0H4IRD2); assay: Standard OMT assay, substrate specificity of recombinant GFLOMT6; assay type: biochemical; settings: for conversion of substrate by GFLOMT6 / acceptance as substrate by GFLOMT6 (in words): standard OMT assay; for Substrate specificity, enzyme GFLOMT6: substrate conversion in the standard OMT assay (percent)
Source text: as §1

[4] = target: T1, GFLOMT2; settings: read-out: Km of GFLOMT2 for substrate; preferred substrate yielding single reaction product
[5] = system: GFLOMT7; assay: Standard OMT assay, substrate specificity of recombinant GFLOMT7; assay type: biochemical, Glaucium flavum; settings: for conversion of substrate by GFLOMT7: standard OMT assay; for Substrate specificity, enzyme GFLOMT7: substrate conversion in the standard OMT assay (percent)
Source text: as §1

Row | Structure (SMILES) | conversion of substrate by GFLOMT1 [1] | Substrate specificity, enzyme GFLOMT1 [1] | conversion of substrate by GFLOMT2 [2] | Substrate specificity, enzyme GFLOMT2 [2] | conversion of substrate by GFLOMT6 [3] | Substrate specificity, enzyme GFLOMT6 [3] | acceptance as substrate by GFLOMT6 (in words) [3] | Km [4] | conversion of substrate by GFLOMT7 [5] | Substrate specificity, enzyme GFLOMT7 [5]
1 | COc1cc2c(cc1O)C(Cc1ccc(O)c(O)c1)N(C)CC2 (racemic) [(R,S)-6-O-Methyllaudanosoline, 6-O-Methyllaudanosoline] | 68% | 68 | 14% | 14 | 23% | 23 | – | – | – | –
2 | COc1cc2c(cc1O)C(Cc1ccc(O)c(O)c1)NCC2 (racemic) [(R,S)-6-O-Methylnorlaudanosoline, 6-O-Methylnorlaudanosoline] | 87% | 87 | 1% | 1 | – | – | did not accept | – | – | –
3 | Oc1ccc(CC2NCCc3cc(O)c(O)cc32)cc1O (racemic) [(R,S)-Norlaudanosoline, Norlaudanosoline] | 96% | 96 | 100% | 100 | – | – | did not accept | 15 µM | – | –
4 | COc1ccc(C[C@@H]2NCCc3cc(OC)c(O)cc32)cc1O (racemic) [(R,S)-Norreticuline, Norreticuline] | – | – | – | – | 36% | 36 | – | – | – | –
5 | COc1cc2c(cc1O)C1Cc3ccc(OC)c(O)c3CN1CC2 (racemic) [(R,S)-Scoulerine, Scoulerine] | 32% | 32 | 75% | 75 | 100% | 100 | – | – | 12% | 12
6 | COc1cc2c(cc1O)[C@@H]1Cc3ccc(OC)c(OC)c3CN1CC2 (racemic) [(R,S)-Tetrahydrocolubamine, Tetrahydrocolumbamine] | 19% | 19 | 32% | 32 | 90% | 91 | – | – | 8% | 8
7 | COc1ccc(C[C@H]2c3cc(O)c(OC)cc3CCN2C)cc1O [(S)-Reticuline, Reticuline] | 6% | 6 | 22% | 22 | 97% | 97 | – | – | – | –
